The results in this text go back to ChEMBL document CHEMBL3991601, “The target landscape of clinical kinase drugs” (Science, 2017).

Activity calls are given as the source filed them. Bounds are passed on as bounds.

Assay [1] deals with T1, Interleukin-1 receptor-associated kinase 3 (Homo sapiens, UniProt Q9Y616).
T1 sequence (Q9Y616 whole entry): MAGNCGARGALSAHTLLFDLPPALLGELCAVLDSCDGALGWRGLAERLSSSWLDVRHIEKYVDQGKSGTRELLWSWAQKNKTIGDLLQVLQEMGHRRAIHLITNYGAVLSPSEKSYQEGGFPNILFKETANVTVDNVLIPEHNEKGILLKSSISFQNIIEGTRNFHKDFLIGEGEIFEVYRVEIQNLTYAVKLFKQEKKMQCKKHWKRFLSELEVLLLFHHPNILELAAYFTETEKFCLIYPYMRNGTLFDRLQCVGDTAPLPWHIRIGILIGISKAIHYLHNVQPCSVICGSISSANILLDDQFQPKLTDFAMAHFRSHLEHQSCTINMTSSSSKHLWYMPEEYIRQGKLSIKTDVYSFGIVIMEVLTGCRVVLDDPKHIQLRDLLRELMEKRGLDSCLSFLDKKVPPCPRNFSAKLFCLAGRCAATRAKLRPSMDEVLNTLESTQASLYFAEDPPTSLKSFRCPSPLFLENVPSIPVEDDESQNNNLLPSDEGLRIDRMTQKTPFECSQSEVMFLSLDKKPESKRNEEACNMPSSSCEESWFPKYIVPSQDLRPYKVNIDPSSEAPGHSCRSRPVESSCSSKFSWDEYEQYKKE

Assay [2] deals with T2, Ras-related protein Rab-10 (Homo sapiens, UniProt P61026).
T2 sequence (P61026 whole entry): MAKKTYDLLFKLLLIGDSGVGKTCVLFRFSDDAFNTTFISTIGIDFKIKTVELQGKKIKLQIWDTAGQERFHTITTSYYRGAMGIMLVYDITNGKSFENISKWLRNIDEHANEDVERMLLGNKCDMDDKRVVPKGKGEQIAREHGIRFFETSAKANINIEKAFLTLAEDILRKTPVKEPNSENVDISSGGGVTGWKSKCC

Assay [3] concerns the target T3, RNA cytidine acetyltransferase (Homo sapiens, UniProt Q9H0A0).
T3 sequence (Q9H0A0 whole entry): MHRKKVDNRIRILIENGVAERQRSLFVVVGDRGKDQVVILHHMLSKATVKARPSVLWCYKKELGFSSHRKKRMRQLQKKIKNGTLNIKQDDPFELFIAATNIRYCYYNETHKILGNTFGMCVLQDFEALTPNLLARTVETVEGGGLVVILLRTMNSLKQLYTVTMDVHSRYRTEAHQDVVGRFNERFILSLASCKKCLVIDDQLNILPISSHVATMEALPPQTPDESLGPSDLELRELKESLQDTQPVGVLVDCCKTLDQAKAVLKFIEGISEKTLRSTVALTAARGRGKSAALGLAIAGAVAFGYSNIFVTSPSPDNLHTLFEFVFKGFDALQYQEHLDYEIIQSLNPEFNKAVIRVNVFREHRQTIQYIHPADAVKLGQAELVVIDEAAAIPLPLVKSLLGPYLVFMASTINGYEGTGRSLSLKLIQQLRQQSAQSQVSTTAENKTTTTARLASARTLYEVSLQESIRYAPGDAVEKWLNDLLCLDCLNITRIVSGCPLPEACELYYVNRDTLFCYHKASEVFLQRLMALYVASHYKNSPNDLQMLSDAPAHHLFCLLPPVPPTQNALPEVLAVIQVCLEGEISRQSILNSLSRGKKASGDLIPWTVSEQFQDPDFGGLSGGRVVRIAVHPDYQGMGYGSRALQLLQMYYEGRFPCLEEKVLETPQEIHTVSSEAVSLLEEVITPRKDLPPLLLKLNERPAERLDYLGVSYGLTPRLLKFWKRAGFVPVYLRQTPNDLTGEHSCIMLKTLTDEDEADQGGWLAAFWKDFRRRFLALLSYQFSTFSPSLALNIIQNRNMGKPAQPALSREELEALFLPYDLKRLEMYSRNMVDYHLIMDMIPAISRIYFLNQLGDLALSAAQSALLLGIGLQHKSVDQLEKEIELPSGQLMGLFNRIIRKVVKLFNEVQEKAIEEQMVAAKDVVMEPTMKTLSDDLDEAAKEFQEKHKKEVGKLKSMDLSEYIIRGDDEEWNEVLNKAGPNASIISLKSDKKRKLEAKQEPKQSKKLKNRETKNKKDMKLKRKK

For assay [4], the target named is Tyrosine-protein kinase Lck (Homo sapiens, UniProt P06239).
Sequence of Tyrosine-protein kinase Lck (P06239 whole entry): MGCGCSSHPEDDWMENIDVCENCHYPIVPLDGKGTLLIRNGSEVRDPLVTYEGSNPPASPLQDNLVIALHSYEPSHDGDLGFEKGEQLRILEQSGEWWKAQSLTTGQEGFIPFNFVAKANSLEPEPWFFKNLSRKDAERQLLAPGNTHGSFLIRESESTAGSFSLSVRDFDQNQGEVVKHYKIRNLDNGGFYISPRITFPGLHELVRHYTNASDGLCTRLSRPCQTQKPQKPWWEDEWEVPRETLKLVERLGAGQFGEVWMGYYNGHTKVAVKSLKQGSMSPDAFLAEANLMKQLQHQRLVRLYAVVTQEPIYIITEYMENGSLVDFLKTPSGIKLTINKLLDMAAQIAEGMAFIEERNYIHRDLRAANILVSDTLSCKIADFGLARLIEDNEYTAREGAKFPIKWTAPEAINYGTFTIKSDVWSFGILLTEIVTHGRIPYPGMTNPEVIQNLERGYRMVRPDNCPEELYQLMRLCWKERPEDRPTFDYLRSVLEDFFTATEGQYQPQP
For assay [5], the target named is 26S proteasome regulatory subunit 6B (Homo sapiens, UniProt P43686).
Sequence of 26S proteasome regulatory subunit 6B (P43686 whole entry): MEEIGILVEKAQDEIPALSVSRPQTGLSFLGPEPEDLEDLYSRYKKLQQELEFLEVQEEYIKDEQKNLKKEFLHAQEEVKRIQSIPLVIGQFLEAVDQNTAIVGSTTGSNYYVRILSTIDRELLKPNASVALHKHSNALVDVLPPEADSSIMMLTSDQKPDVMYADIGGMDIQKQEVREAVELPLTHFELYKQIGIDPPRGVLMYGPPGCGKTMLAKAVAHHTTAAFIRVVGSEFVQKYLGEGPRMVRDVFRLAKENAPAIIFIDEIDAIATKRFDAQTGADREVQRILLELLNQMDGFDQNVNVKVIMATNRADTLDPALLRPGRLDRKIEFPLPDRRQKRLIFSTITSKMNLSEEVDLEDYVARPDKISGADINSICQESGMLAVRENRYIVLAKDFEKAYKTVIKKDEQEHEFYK
Assay [6] deals with T4, DNA replication licensing factor MCM4 (Homo sapiens, UniProt P33991).
T4 sequence (P33991 whole entry): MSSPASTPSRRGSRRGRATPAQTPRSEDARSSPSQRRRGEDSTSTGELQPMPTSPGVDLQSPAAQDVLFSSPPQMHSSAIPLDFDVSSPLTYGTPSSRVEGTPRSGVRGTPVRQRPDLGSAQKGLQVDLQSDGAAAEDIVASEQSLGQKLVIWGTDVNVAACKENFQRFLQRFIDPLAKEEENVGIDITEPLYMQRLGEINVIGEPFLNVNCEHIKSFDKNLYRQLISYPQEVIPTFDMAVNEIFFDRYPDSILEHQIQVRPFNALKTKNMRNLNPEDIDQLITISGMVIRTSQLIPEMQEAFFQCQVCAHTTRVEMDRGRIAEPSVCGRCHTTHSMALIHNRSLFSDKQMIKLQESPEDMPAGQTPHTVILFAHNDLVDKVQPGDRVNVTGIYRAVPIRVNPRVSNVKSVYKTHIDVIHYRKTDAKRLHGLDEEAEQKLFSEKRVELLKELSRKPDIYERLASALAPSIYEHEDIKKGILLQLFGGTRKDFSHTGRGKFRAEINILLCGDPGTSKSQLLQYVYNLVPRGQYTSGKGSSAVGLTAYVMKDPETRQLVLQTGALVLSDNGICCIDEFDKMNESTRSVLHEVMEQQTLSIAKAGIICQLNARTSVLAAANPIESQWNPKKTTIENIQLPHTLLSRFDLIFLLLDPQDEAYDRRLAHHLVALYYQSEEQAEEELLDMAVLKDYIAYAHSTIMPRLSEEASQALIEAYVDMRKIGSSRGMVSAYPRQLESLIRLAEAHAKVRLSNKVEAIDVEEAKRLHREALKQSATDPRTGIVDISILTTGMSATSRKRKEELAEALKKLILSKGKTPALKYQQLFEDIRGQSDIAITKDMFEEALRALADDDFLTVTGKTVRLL

Assay [7] concerns the target Casein kinase I isoform delta (Homo sapiens, UniProt P48730).
Also: in the data inactive means no Kd found up to 30 µM.

Sequence of Casein kinase I isoform delta (P48730 whole entry, canonical isoform): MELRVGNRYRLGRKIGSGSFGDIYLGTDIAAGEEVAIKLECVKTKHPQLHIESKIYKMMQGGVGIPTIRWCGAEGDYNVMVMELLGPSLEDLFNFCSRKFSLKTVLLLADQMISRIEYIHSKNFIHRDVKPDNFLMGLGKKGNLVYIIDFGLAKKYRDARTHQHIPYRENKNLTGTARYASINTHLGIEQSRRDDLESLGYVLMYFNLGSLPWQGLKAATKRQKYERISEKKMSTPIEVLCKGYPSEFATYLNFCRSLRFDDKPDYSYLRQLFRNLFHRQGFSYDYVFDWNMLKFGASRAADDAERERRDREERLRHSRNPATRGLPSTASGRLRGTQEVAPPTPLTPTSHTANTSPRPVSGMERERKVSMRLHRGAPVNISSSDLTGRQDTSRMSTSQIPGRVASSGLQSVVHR

As for `CC(=O)Nc1cccc(-n2c(=O)n(C3CC3)c(=O)c3c(Nc4ccc(I)cc4F)n(C)c(=O)c(C)c32)c1` [TRAMETINIB], the Kd in assay [1], in assay [2], in assay [3], in assay [4], in assay [5] and in assay [6] was > 30 µM (inactive) each time. In addition, in assay [7], the Kd was > 30 µM (inactive).
For the compound `Cn1ncc(Cl)c1-c1cc(C(=O)N[C@H](CN)Cc2cccc(F)c2)sc1Cl` [AFURESERTIB], the Kd in assay [1], in assay [2], in assay [3], in assay [4], in assay [5] and in assay [6] was > 30 µM (inactive) each time. In addition, in assay [7], the Kd is > 30 µM (inactive).
In the case of `CCCS(=O)(=O)Nc1ccc(F)c(C(=O)c2c[nH]c3ncc(-c4ccc(Cl)cc4)cc23)c1F` [VEMURAFENIB], the Kd in assay [1], in assay [2], in assay [3], in assay [4], in assay [5] and in assay [6] was > 30 µM (inactive) in each case. Also, in assay [7], the Kd was > 30 µM (inactive).
Consider `COCCNCc1ccc(-c2cc3nccc(Oc4ccc(NC(=S)NC(=O)Cc5ccc(F)cc5)cc4F)c3s2)nc1` [GLESATINIB], for which the Kd was > 30 µM (inactive) in assay [1]; > 30 µM (inactive) in assay [2]; > 30 µM (inactive) in assay [3]; 0.092 µM (active) in assay [4]; > 30 µM (inactive) in assay [5]; > 30 µM (inactive) in assay [6]. The Kd in assay [7] is > 30 µM (inactive).
Consider `COC(=O)[C@@]1(O)C[C@H]2O[C@]1(C)n1c3ccccc3c3c4c(c5c6ccccc6n2c5c31)C(=O)NC4` [K-252A], for which the dissociation constant (Kd) in assay [1] is 0.254 µM (active); in assay [2], > 30 µM (inactive); in assay [3], > 30 µM (inactive); in assay [4] it was > 30 µM (inactive); in assay [5], > 30 µM (inactive); in assay [6], > 30 µM (inactive). In assay [7], the Kd is > 30 µM (inactive).
Consider `Cc1cc([C@@H](C)Nc2ccccc2C(=O)O)c2nc(N3CCOCC3)cc(=O)n2c1` [AZD-6482], for which the Kd in assay [1], in assay [2], in assay [3], in assay [4], in assay [5] and in assay [6] was > 30 µM (inactive) throughout. Besides, the Kd in assay [7] is > 30 µM (inactive).
Consider `COc1cc(CCc2cc(NC(=O)c3ccc(N4C[C@@H](C)N[C@@H](C)C4)cc3)n[nH]2)cc(OC)c1` [AZD-4547], for which the Kd in assay [1], in assay [2], in assay [3], in assay [4], in assay [5] and in assay [6] was > 30 µM (inactive) in each case. Further, in assay [7], the Kd is > 30 µM (inactive).
Regarding `CN1CC[C@@H](c2c(O)cc(O)c3c(=O)cc(-c4ccccc4Cl)oc23)[C@@H]1CO`, the Kd in assay [1], in assay [2], in assay [3], in assay [4], in assay [5] and in assay [6] was > 30 µM (inactive) each time. Besides, in assay [7], the Kd is > 30 µM (inactive).
On to `N[C@@H]1CCCN(c2c(/C=C3\SC(=O)NC3=O)cccc2-c2ccccc2)C1`, for which the Kd in assay [1], in assay [2], in assay [3], in assay [4], in assay [5] and in assay [6] was > 30 µM (inactive) throughout. For the same compound, in assay [7], the Kd was > 30 µM (inactive).
Consider `CCN1CCN(Cc2ccc(-c3cc4c(N[C@H](C)c5ccccc5)ncnc4[nH]3)cc2)CC1` [AEE-788], for which the Kd in assay [1], in assay [2], in assay [3], in assay [4], in assay [5] and in assay [6] was > 30 µM (inactive) throughout. The Kd in assay [7] was > 30 µM (inactive).
On to `C[C@@H]1CN(Cc2ccc(F)cc2)[C@@H](C)CN1C(=O)c1cc2c(C(=O)C(=O)N(C)C)cn(C)c2cc1Cl` [TALMAPIMOD], for which the Kd in assay [1], in assay [2], in assay [3], in assay [4], in assay [5] and in assay [6] was > 30 µM (inactive) in each case. Moreover, the Kd in assay [7] is > 30 µM (inactive).
For the compound `O=C(Nc1ccc(-c2ccnc(Nc3ccc(N4CCOCC4)cc3)n2)cc1)C1CCCN1` (stereo not drawn) [XL-019], the Kd in assay [1], in assay [2], in assay [3], in assay [4], in assay [5] and in assay [6] was > 30 µM (inactive) each time. Further, the Kd in assay [7] was > 30 µM (inactive).
Consider `CN1CCC(COc2cnc(-c3cccc(Cn4nc(-c5cccc(C#N)c5)ccc4=O)c3)nc2)CC1` [TEPOTINIB], for which the Kd in assay [1], in assay [2], in assay [3], in assay [4], in assay [5] and in assay [6] was > 30 µM (inactive) in each case. In assay [7], the Kd is > 30 µM (inactive).
Turning to `CCn1c(=O)c(-c2cc[nH]n2)cc2c(C)nc(N)nc21` [VOXTALISIB], the Kd in assay [1], in assay [2], in assay [3], in assay [4], in assay [5] and in assay [6] was > 30 µM (inactive) each time. Also, in assay [7], the Kd was > 30 µM (inactive).

The term Kd denotes the free concentration of one partner at which half of the binding sites on the other are occupied at equilibrium, for simple one-to-one binding.
